Experimental data reported in BindingDB's records for patent US20250042862 (Shanghai Institute of Materia Medica, 2025).

Molecular target: Lysine-specific histone demethylase 1A (Homo sapiens, UniProt O60341)
Test: In Vitro Enzyme Inhibition Activity Assay
Protocol: The purpose of this experiment was to test the in vitro inhibitory activity of the compounds against LSD1. The human recombinant LSD1 protein used in the experiment was purchased from Active Motif, and the enzyme level activity testing assay of LSD1 was performed using the Lance Ultra LSD1 Histone H3 Lysine 4 Demethylase Assay Kit (PerkinElmer). Tris-buffer (50 mMTris-HCl, 50 mMNaCl, 0.01% Tween-20, 1 mM DTT, 10 μM FAD, 10% glycerol, pH 9.0) was first prepared, and after preparation, the LSD1 fractions required for test were placed in this buffer and incubated for one hour at room temperature; the fractions included 4 μL of substrate solution ([…] Bio-H3K4me2, 1-24aa), 4 μL of enzyme solution (4 nM LSD1), and 2 μL of inhibitor in a 384-well microplate. After these operations, another 5 μL of assay mixture containing Eu-labeled H3K4me0 antibody and ULight-Streptavidin anti-biotin protein was added to the system, after which the fluorescence intensity of the components to be tested was detected by using Envision (PerkinElmer) in TR-FRET mode (excitation wavelength of 320 nm, emission wavelength of 620 nm). The test was repeated a total of three times to minimize errors. The final IC50 data were calculated by the software GraphPad Prism 5, and finally the sigmoidal dose-response (variable slope) method was used to obtain the fitted curve.

| IC50 | Structure (SMILES) |
| --- | --- |
| < 30 nM | N#Cc1ccc(-c2nc(NC[C@H]3CCNC3)nc3ccc(-c4ccccc4Cl)cc23)cc1F [US20250042862, Compound 42] |
| < 30 nM | N#Cc1ccc(-c2nc(NC[C@H]3CCNC3)nc3ccc(-c4ccccc4C(F)(F)F)cc23)cc1F [US20250042862, Compound 40] |
